In this experiment the test system is cytokine induced oxidatively modified proteins in NHBE cells. Put plainly: OxyBlot oxidized protein analysis. Format: cell-based, human. To be noted: TNF + IL-4, FIG. 4. The procedure: The OxyBlot™ assay (Intergen) detects oxidative modification of proteins by reactive oxygen species such as hydroxynonenal. As a consequence of the modification, carbonyl groups are introduced into protein side chains by a site-specific mechanism. OxyBlot™ detects these carbonyl groups, which is a hallmark of the oxidation status of proteins.
Normal human bronchial epithelial cells (NHBE) were purchased from Clonetics. They were cultured in BEGM (Clonetics) media without retinoic acid. In a typical experiment, the cells were seeded in 24-well plates. Media was changed to BEGM without retinoic acid (RA) and hydrocortisone (HC) 24 hr before dosing. Cells were then exposed to compounds in fresh BEGM without RA and HC for 20 min at 37° C., subsequently stimulated with TNF (10 ng/ml) and IL-4 (20 ng/ml) purchased from Boehringer Mannheim for another 20 min at 37° C. All compounds were dissolved in DMSO and the final concentration of DMSO was 0.2%.
Cells were washed 3 times with cold PBS, and lysed in 100 μl/well 1×RIPA buffer (25 mM Tris pH7.6, 150 mM NaCl, 2 mM EDTA, 1% IGEPAC, 0.5% deoxycholate, 0.1% SDS), 50 mM DTT, 1 mM PMSF, […] leupeptin, 1 μl/ml aprotinin. The cell lysates were clarified by centrifugation. 5 μl of the lysates were mixed with 5 μl 12% SDS (OxyBlot™ kit) and 10 μl of 1×2,4-Dintirophenylhydrazin (DNPH) (OxyBlot™ kit). […]

With `S=C(S)N1CCCC1` [PTDC, pyrrolidine dithiocarbamate, reference compound], the “inhibition of cytokine induced oxidatively modified proteins” value is on record as “inhibit”.

Values taken from patent US6747061B2, “N-substituted dithiocarbamates for the treatment of biological disorders” (AtheroGenics, Inc., priority 2000, dated 2004).
